Experimental data published in paper PMC12446003, “Pharmacological characterization of linaprazan glurate (X842), a novel potassium-competitive acid blocker, in vitro and in vivo” (Frontiers in Pharmacology, 2025).
Where two headings read alike, the source gives them in different places.

Columns and labels:
[1] = Pharmacokinetic assessment of X842 in rats (IV, single oral, repeated oral); type: in vivo, Sprague-Dawley rats; settings: for Cmax / AUC(0-t) / half-life: Sprague-Dawley, rat, plasma; for AUC(0-t): read-out: AUC(0–24h)
Protocol: Male and female Sprague-Dawley rats weighing approximately 150 g were housed individually with a 12-h light/dark cycle. Food and water were provided ad libitum, except during overnight fasting (10–16 h) prior to oral drug administration, as described previously ([Kotegawa et al., 1998]; [Kotegawa et al., 2002]). To investigate the absorption kinetics of X842 (prodrug) and linaprazan (metabolite, parent drug) in rats after oral and intravenous administration of X842, X842 were dissolved in 5% Solutol HS15/45% ethanol/10% PEG400/40% saline, and methane sulfonic acid was used to adjust to pH 3, yielding solutions with concentrations of 0.6 mg/mL, 2.4 mg/mL, and 9.6 mg/mL for oral administration. For intravenous (IV) injection, a drug solution (0.6 mg/mL) was prepared and filtered through a 0.22-μm filter. Blood samples were collected via the jugular vein of conscious rats (without intubation, narcotics, or antibiotics) prior to dosing and at 0.083, 0.25, 0.5, 1, 2, 4, 6, 8, and 24 h after dosing. Blood samples were placed into tubes containing sodium heparin and centrifuged at 3,500 rpm for 10 min at 4 °C. Following centrifugation, the plasma was transferred to clean tubes and stored at −80 °C until further analysis. All animals were euthanized by carbon dioxide (CO2) inhalation after the final blood sample collection.
(§1) Pharmacokinetic assessments were conducted by Shanghai Medicilon Inc. Using C18 solid-phase extraction (Shimadzu UFLC-20A, ACE 3, C18, 3.0 µm, 150 × 4.6 mm; Shimadzu, Japan) with the following conditions: mobile phase A: 1 M ammonium acetate in water, mobile phase B: 100% acetonitrile; gradient 0–5 min: 100% A, 5–30 min: 85% A, 35–63 min: 75% A, 63–65 min: 55% A, 65–70 min: 0% A, 72–87 min: 100% A; flow rate 0.7 mL/min; column temperature 30 °C ([Weidof and Covey, 1992]). […] Bioavailability was calculated as F (%) = (Doseiv × AUCpo(0–24h)) ÷ (Dosepo × AUCiv (0–24h)) × 100%, where “po” represents oral administration and “iv” represents intravenous administration.

[2] = Pharmacokinetic assessment of X842 in dogs (IV, single oral, repeated oral); type: in vivo; settings: beagle, dog, plasma; for half-life at 1 day: read-out: t1/2 Day 1 (converted); for half-life at 7 day: read-out: t1/2 Day 7 (converted)
Protocol: as §1
Male and female Beagle dogs weighing around 9 kg were arbitrarily selected for testing. Food and water were provided ad libitum, except during overnight fasting (15–16 h) prior to oral drug administration ([Adebowale et al., 2002]). X842 were dissolved in the PEG400/ethanol/Solutol/water mixture (40:10:5:45% v/v) and methane sulfonic acid was used to adjust to pH 3, yielding solutions with concentrations of 0.3 mg/mL, 1.2 mg/mL, and 4.8 mg/mL for oral administration. There were four rounds of drug administration. One week was required between the rounds of testing according to the conditions for of animal welfare maintenance. For IV injection, a drug solution with a concentration of 0.3 mg/mL was prepared and filtered through a 0.22-μm filter. Blood samples were collected via the jugular vein using the same procedures as were used for the rat experiments. Following centrifugation, the plasma was transferred to clean tubes and stored at −80 °C until further analysis. All animals were euthanized by phenobarbital injection after the final blood sample collection. Pharmacokinetic assessments were conducted as described in 2.2.1.

[3] = female, iv, 0.6 mg/kg, female rats, intravenous X842, plasma analyte as labelled
[4] = female, po, 0.6 mg/kg, female rats, single oral X842 0.6 mg/kg, analyte as labelled
[5] = female, po, 2.4 mg/kg, female rats, single oral X842 2.4 mg/kg, analyte as labelled
[6] = female, po, 2.4 mg/kg, female rats, single oral X842, 2.4 mg/kg (third dose group)
[7] = male, iv, 0.6 mg/kg, male rats, intravenous X842, plasma analyte as labelled
[8] = male, po, 0.6 mg/kg, male rats, single oral X842 0.6 mg/kg, analyte as labelled
[9] = male, po, 2.4 mg/kg, male rats, single oral X842 2.4 mg/kg, analyte as labelled
[10] = male, po, 2.4 mg/kg, male rats, single oral X842, 2.4 mg/kg (third dose group)
[11] = 1.2 mg/kg, female dogs, repeat oral X842, Day 1, analyte as labelled
[12] = 1.2 mg/kg, female dogs, repeat oral X842, Day 7, analyte as labelled

Cc1cccc(C)c1CNc1cc(C(=O)NCCOC(=O)CCCC(=O)O)cn2c(C)c(C)nc12 [X842, linaprazan glurate]
Cmax [1, 3]: 606 ± 284 ng/mL | AUC(0-t) [1, 3]: 218 ± 101 ng·h/mL | half-life ([1]; female, iv, 0.6 mg/kg, female rats, intravenous X842, plasma analyte as labelled, read-out: t1/2 (converted)): 0.4 ± 0.03 h | Cmax [1, 4]: 8.7 ± 4.9 ng/mL | AUC(0-t) [1, 4]: 13.8 ± 13.1 ng·h/mL | half-life ([1]; female, po, 0.6 mg/kg, female rats, single oral X842 0.6 mg/kg, analyte as labelled, read-out: t1/2 (converted)): 2.8 h | Cmax [1, 5]: 42.6 ± 17.4 ng/mL | AUC(0-t) [1, 5]: 85.6 ± 45.6 ng·h/mL | half-life ([1]; female, po, 2.4 mg/kg, female rats, single oral X842 2.4 mg/kg, analyte as labelled, read-out: t1/2 (converted)): 4.1 ± 1.2 h | Cmax [1, 6]: 164 ± 124 ng/mL | AUC(0-t) [1, 6]: 310 ± 256 ng·h/mL | half-life ([1]; female, po, 2.4 mg/kg, female rats, single oral X842, 2.4 mg/kg (third dose group), read-out: t1/2 (converted)): 2.1 ± 0.3 h | half-life ([1]; female, po, female rats, single-dose oral administration, read-out: t1/2 (range over doses)): 2.1 to 4.1 h | Cmax [1, 7]: 448 ± 120 ng/mL | half-life ([1]; male, iv, 0.6 mg/kg, male rats, intravenous X842, plasma analyte as labelled (prodrug X842 / parent linaprazan), read-out: t1/2 (converted)): 0.4 ± 0.1 h | AUC(0-t) [1, 7]: 146 ± 38 ng·h/mL | Cmax [1, 8]: 2.5 ± 1.8 ng/mL | AUC(0-t) [1, 8]: 2.5 ± 2.6 ng·h/mL | Cmax [1, 9]: 14.6 ± 10.1 ng/mL | AUC(0-t) [1, 9]: 18.3 ± 10 ng·h/mL | half-life ([1]; male, po, 2.4 mg/kg, male rats, single oral X842 2.4 mg/kg, analyte as labelled, read-out: t1/2 (converted)): 2.6 h | Cmax [1, 10]: 49.7 ± 35.4 ng/mL | AUC(0-t) [1, 10]: 11.6 ± 77.5 ng·h/mL | half-life ([1]; male, po, 2.4 mg/kg, male rats, single oral X842, 2.4 mg/kg (third dose group), read-out: t1/2 (converted)): 2.01 ± 0.18 h | half-life ([1]; male, po, male rats, single-dose oral administration, read-out: t1/2 (range over doses)): 2 to 2.7 h | Plasma concentration after IV administration ([1]; within 0.5 h after IV administration, male and female rats): barely detectable | Cmax at 1 day [2, 11]: 138 ± 7.6 ng/mL | half-life at 1 day [2, 11]: 1.1 ± 0.2 h | Cmax at 7 day [2, 12]: 47.2 ± 10.6 ng/mL | half-life at 7 day [2, 12]: 2 ± 1.2 h | half-life at 1 day ([2]; 1.2 mg/kg, male dogs, 7 days of repeat oral X842, Day 1, analyte as labelled): 2.01 ± 0.73 h | half-life at 7 day ([2]; 1.2 mg/kg, male dogs, 7 days of repeat oral X842, Day 7, analyte as labelled): 8.6 ± 10.8 h | Cmax at 1 day ([2]; 1.2 mg/kg, male dogs, repeat oral X842, Day 1, analyte as labelled): 26.3 ± 21.6 ng/mL | Cmax at 7 day ([2]; 1.2 mg/kg, male dogs, repeat oral X842, Day 7, analyte as labelled): 15.6 ± 10.4 ng/mL | Cmax ([2]; female dogs, intravenous X842 0.3 mg/kg, analyte as labelled): 694 ± 225 ng/mL | half-life ([2]; female dogs, intravenous X842 0.3 mg/kg, analyte as labelled, read-out: t1/2 (converted)): 0.7 ± 0.1 h | Cmax ([2]; female dogs, single oral X842 0.3 mg/kg, analyte as labelled): 6.1 ng/mL | Cmax ([2]; female dogs, single oral X842 1.2 mg/kg, analyte as labelled): 37.5 ± 7.6 ng/mL | half-life ([2]; female dogs, single oral X842 1.2 mg/kg, analyte as labelled, read-out: t1/2 (converted)): 1.2 ± 0.2 h | Cmax ([2]; female dogs, single oral X842 4.8 mg/kg, analyte as labelled): 271 ng/mL | half-life ([2]; female dogs, single oral X842 4.8 mg/kg, analyte as labelled, read-out: t1/2 (converted)): 2.7 ± 2.2 h | half-life ([2]; female dogs, single oral dose, read-out: t1/2 (range over doses)): 2.1 to 3.2 h | Cmax ([2]; male dogs, intravenous X842 0.3 mg/kg, analyte as labelled): 745 ± 157 ng/mL | half-life ([2]; male dogs, intravenous X842 0.3 mg/kg, analyte as labelled, read-out: t1/2 (converted)): 0.5 ± 0.1 h | Cmax ([2]; male dogs, single oral X842 0.3 mg/kg, analyte as labelled): 5.3 ± 4 ng/mL | Cmax ([2]; male dogs, single oral X842 1.2 mg/kg, analyte as labelled): 26.3 ng/mL | half-life ([2]; male dogs, single oral X842 1.2 mg/kg, analyte as labelled, read-out: t1/2 (converted)): 2 ± 0.7 h | Cmax ([2]; male dogs, single oral X842 4.8 mg/kg, analyte as labelled): 355 ng/mL | half-life ([2]; male dogs, single oral X842 4.8 mg/kg, analyte as labelled, read-out: t1/2 (converted)): 3.4 ± 2.2 h | half-life ([2]; male dogs, single oral dose, read-out: t1/2 (range over doses)): 2 to 3.4 h | half-life ([2]; both sexes, 0.3 mg/kg, dogs, IV administration, similar between the sexes, read-out: t1/2 (converted)): ~0.6 h | AUC(0-t) ([2]; female, iv, 0.3 mg/kg, female dogs, intravenous X842 0.3 mg/kg, analyte as labelled, read-out: AUC(0-24h)): 343 ± 125 ng·h/mL | AUC(0-t) ([2]; female, po, 0.3 mg/kg, female dogs, single oral X842 0.3 mg/kg, analyte as labelled, read-out: AUC(0-24h)): 5.1 ± 3.3 ng·h/mL | AUC(0-t) ([2]; female, po, 1.2 mg/kg, female dogs, repeat oral X842, Day 1, analyte as labelled, read-out: AUC(0-24h) Day 1): 72.3 ± 18.3 ng·h/mL | AUC(0-t) ([2]; female, po, 1.2 mg/kg, female dogs, repeat oral X842, Day 7, analyte as labelled, read-out: AUC(0-24h) Day 7): 69.4 ± 54.1 ng·h/mL | AUC(0-t) ([2]; female, po, 1.2 mg/kg, female dogs, single oral X842 1.2 mg/kg, analyte as labelled, read-out: AUC(0-24h)): 72.3 ng·h/mL | AUC(0-t) ([2]; female, po, 4.8 mg/kg, female dogs, single oral X842 4.8 mg/kg, analyte as labelled, read-out: AUC(0-24h)): 504 ng·h/mL | AUC(0-t) ([2]; male, iv, 0.3 mg/kg, male dogs, intravenous X842 0.3 mg/kg, analyte as labelled, read-out: AUC(0-24h)): 361 ± 118 ng·h/mL | AUC(0-t) ([2]; male, po, 0.3 mg/kg, male dogs, single oral X842 0.3 mg/kg, analyte as labelled, read-out: AUC(0-24h)): 5.2 ± 2.3 ng·h/mL | AUC(0-t) ([2]; male, po, 1.2 mg/kg, male dogs, repeat oral X842, Day 1, analyte as labelled, read-out: AUC(0-24h) Day 1): 65.1 ± 51.2 ng·h/mL | AUC(0-t) ([2]; male, po, 1.2 mg/kg, male dogs, repeat oral X842, Day 7, analyte as labelled, read-out: AUC(0-24h) Day 7): 35.4 ± 8.7 ng·h/mL | AUC(0-t) ([2]; male, po, 1.2 mg/kg, male dogs, single oral X842 1.2 mg/kg, analyte as labelled, read-out: AUC(0-24h)): 65.1 ng·h/mL | AUC(0-t) ([2]; male, po, 4.8 mg/kg, male dogs, single oral X842 4.8 mg/kg, analyte as labelled, read-out: AUC(0-24h)): 889 ng·h/mL
